{"source": "patent US6297032A", "about": "“Recombinant cephalosporin C amidohydrolase in cephalosporin biosynthesis” (Glaxo Group Limited, priority 1994, dated 2001)", "key": {"[1]": {"system": "Immobilised amidohydrolase", "assay": "Immobilised amidohydrolase activity (pH stat, DMAB assay)", "format": "biochemical, Pseudomonas vesicularis", "conditions": "for Activity μmole 7ACA/min/g dry weight immobilised enzyme / Activity μmole/min/g wet weight immobilised enzyme: 50 mg/ml substrate in water, 25° C., pH 8.0", "description": "E. coli strain NM522/pVS 44 was grown on TSB medium supplemented with 10 μg/ml choramphenicol and solidified with 1.5% w/v agar. Growth was for 2-4 days at 27.5° C. Cell paste was recovered by scraping from the agar surface, resuspended and washed in lysis buff (10 mM MOPS pH 8.0; 1 mM DTT; 1 mM benzamidine). About 65 g cell paste was lysed in 350 ml ice cold buffer by sonication (650W output, power setting 4, 5 passes through a continuous flow head at 35 ml/min flow, sample chilled on ice). The lysate was clarified by centrifugation (15,000 rpm, 30 min) to yield 3120 mg soluble protein. This material was passed over a 300 ml column of pre-equlibrated DE52 cellulose. Fractions eluting between 100 ml-500 ml after loading contained amidohydrolase activity in a total of 398 mg protein. The protein was concentrated using a centrifugal membrance device (Centriprep 30 concentrator, Amicon).\nThe concentrated extract (300 mg protein, 12.54 ml) was adjusted to 100 mM phosphate buffer pH 8.0:1 mM DTT; 1 mM benzamidine, and mixed with 3.0 g (dry weight) oxirane-linked polyacrylic matrix (Eupergit C: Rohm Pharma GmbH, D-6100 Darmstadt Germany). Immobilisation, monitored by protein removal from the liquid phase, was complete by 116 hours. About 120 mg protein became covalently linked to the support. Excess protein was removed by washing in the phosphate buffer.\nImmobilised amidohydrolase activity was monitored by allowing the enzyme catalysed reaction to occur using an automated control system set to detect and maintain the reaction pH at a set point (a pH stat system). A pH monitor was set such that a fall in pH from the set point triggered a peristaltic pump to allow regulated dosing of alkali titrant.\nA reaction volume of 50 ml contained 50 mg/ml substrate (GL-7ACA or Ceph C) in water maintained at 25° C. The reaction mix was adjusted to pH 8.0 using 2M NaOH as titrant before addition of about 3 g dry weight (12 g wet weight) immobilised enzyme to initate the reaction. The suspension was stirred using an overhead paddle type stirrer. Reaction progress was monitored by titrant addition rate and sampling at intervals. The samples were assayed for 7ACA by the DMAB method as in preparation 1(a). By this method the following activities were measured. (Table 8.)"}, "[2]": {"system": "cephalosporin C amidohydrolase", "assay": "Enzyme activity assay, partially purified amidohydrolase recovered from B965", "format": "biochemical, Pseudomonas vesicularis B965", "description": "(§1) Cell suspensions or semi-purifed enzyme samples were incubated in substrate buffer for up to 24 hours at 37° C. At a suitable time a 100 μl aliquot of fluram reagent was then added, mixed and the sample incubated at room temperture for 1 hour. Fluram reagent consists of fluroescamine (Sigma Chemical Co) at 1 mg/ml in dry acetone. The presence of 7ACA in the reaction mix was detected after derivatisation of the free primary amine group by using fluorescence spectroscopy at an excitation wave length of 378 nm and emission detection at 498 nm in a flow injection assay system with 10% acetone in water as carrier fluid.\nB965 cells were cultured on TSB agar plates essentially by the method of preparation 1(b). The cells were harvested into enzyme buffer, washed and finally resuspended in 10 ml chilled enzyme buffer. Enzyme buffer is 100 mM sodium phosphate buffer (pH 7.0) containing 1 mM DTT and 1 mM benzamidine. The cells were lysed by sonication using a 650W output sonicator (model W-380, Heat System Ultrasonics Inc, 1938 New Highway, Farmingdale, N.Y. 11735, USA) on power settings 2-3, 50% cycle, for 12 , minutes . The extract was clarifed by centrifugation at 18,000 g for 15 minutes at 4° C. The supernatant was recovered, adjusted to 10 ml volume in enzyme buffer, then solid ammonium sulphate was added slowly with gentle mixing at 4° C. to 30% saturation. […]"}, "[3]": {"system": "cephalosporin C amidohydrolase", "assay": "Substrate comparison, assay response by HPLC, enzyme from NM522/pVS44 cells", "format": "biochemical, Pseudomonas vesicularis", "description": "(§2) The enzyme reaction mix was derivatised as above a 20 μl sample applied in a mobile phase consisting of 35% acetonitrile, 0.1% trifluoroacetic acid in HPLC-grade water onto a 15 cm Hypersil ODS 5μ column at 32° C. with a flow rte of 1.5 ml/min. Detection by fluorescence spectroscopy was as above. In this system authentic 7ACA standard has a retention time of 6.7 minutes, with a minor degradation peak at\n(a) Assay response is given as product yield standardised to the 7ACA produced from GL-7ACA under equivalen reaction conditions. For this comparison it is assumed that products have molar extinction coefficients equivalent to 7ACA, such that the response was calculated directly from product peak area on HPLC. The standard reaction used 100 μl enzyme prepared by the procedure of preparation of 2(d) from NM522/p/VS44 cells, with 10 mg/ml substrate in overnight reaction at 27° C.\n(b) Assay response obtained using 10 μl of above enzyme extract, with 3 mg/ml substrate in 2 hour reaction at 27° C. The actual response was then extrapolated to equivalent conditions to those used with the more slowly hydrolysed substrates."}, "[4]": {"system": "gram-negative microorganisms", "conditions": "against gram-negative microorganisms; cited from earlier work"}, "[5]": {"system": "cephalosporin C amidohydrolase", "assay": "Enzyme activity assay, NM522/pVS44 extract after DE52 cellulose", "format": "biochemical, Pseudomonas vesicularis", "conditions": "10 μl extract; 50 mg/ml cephalosporin C; 3 hour incubation at 27° C.", "description": "as §1, with “Substrate buffer consists of 50 mM sodium phosphate buffer pH 7.0 containing 13.5 mg/ml cloxacillin and GL-7CA (3 mg/ml) or cephalosporin C (10 mg/ml). Cell” for “Cell”\nCephalosporin C amidohydrolase enzyme activity was recovered from NM522/pVS44 cells using procedures of preparation 1(b) and 1(c) to the cell free extract stage followed by chromatography on DE52 cellulose as described above. In a typical assay using the method of preparation 1(c), a 10 μl extract produced 12 μg/ml 7ACA from 50 mg/ml cephalosporin C in a 3 hour incubation at 27° C. This represents approximately 30-fold improvement over the level of activity obtained using B1113 strain extract aat an equivalent stage of purification."}, "[6]": {"system": "cephalosporin C amidohydrolase", "assay": "Cephalosporin C amidohydrolase enzyme properties, kinetic", "format": "biochemical, Pseudomonas vesicularis B965", "description": "as §1, with “Substrate buffer consists of 50 mM sodium phosphate buffer pH 7.0 containing 13.5 mg/ml cloxacillin and GL-7CA (3 mg/ml) or cephalosporin C (10 mg/ml). Cell” for “Cell”\nFurther purification of the amidohydrolase was undertaken using an FPLC system (Pharmacia LKB Biotechnology, S-751 82 Uppsala, Sweden) in order to define the properties of the enzyme.\nMaterial recovered from the 30-60% saturation ammonium sulphate precipitate was resuspended in MOPS buffer (10 mM MOPS pH8.0, 1 mM benzamidine). The solution was clarified by brief centrifugation followed by filration through a 0.2 micron filter. A 5 ml aliquot of enzyme mixture was applied to an HR5/5 MonoQ column pre-equilibrated with MOPS buffer. Amidohydrolase activity was recovered in the eluate between 2-4 after loading. This fraction was adjusted to 30% saturation in ammonium sulphate and loaded to an HR10/30 phenylsuperose column. Elution of protein was achieved using a salt gradient regime varying from 30%-0% saturation in ammonium sulphate with a running buffer consisting of 100 mM sodium phosphate pH7.0, 1 mM DTT. Amidohydrolase activity was recovered at between 18.5%-15.0% saturation of ammonium sulphate under these conditions."}, "[7]": {"system": "cephalosporin C amidohydrolase", "assay": "Enzyme activity assay, B965 whole cells (7ACA production)", "format": "biochemical, Pseudomonas vesicularis B965", "description": "as §1, with “Substrate buffer consists of 50 mM sodium phosphate buffer pH 7.0 containing 13.5 mg/ml cloxacillin and GL-7CA (3 mg/ml) or cephalosporin C (10 mg/ml). Cell” for “Cell”\nas §2\nIn typical experiments using these conditions B965 cells sufficient to fill a 10 μl inoculating loop produced 320 μg/ml 7ACA in 18 hours incubation GL-7ACA as substrate. […]"}, "[8]": {"system": "cephalosporin C amidohydrolase", "assay": "Enzyme activity assay, E. coli B1113 extract after DE52 cellulose", "format": "biochemical, Pseudomonas vesicularis", "conditions": "extract 50", "description": "as §1, with “Substrate buffer consists of 50 mM sodium phosphate buffer pH 7.0 containing 13.5 mg/ml cloxacillin and GL-7CA (3 mg/ml) or cephalosporin C (10 mg/ml). Cell” for “Cell”\nE. coli B1113 was grown on TSB agar plates following the method of preparation 1(b). The confluent cell growth was processed for amidohydrolase recovery essentially following the procedure of preparation 1(d) to the cell-free extract stage.\nAmidohydrolase activity was further purified by application of the cell-free extract to a DE52 cellulose column (Whatman Ltd, Maidstone, Kent ME14 2ME). The majority of proteins in the extract bind to the matrix and amidohydrolase activity is not retained. […]"}, "[9]": {"conditions": "100 μl enzyme from NM522/pVS44 cells, 10 mg/ml substrate, overnight reaction at 27° C., standardised to 7ACA produced from GL-7ACA"}}}
{"compound": "CC(=O)OCC1=C(C(=O)O)N2C(=O)[C@@H](NC(=O)CCC[C@@H](N)C(=O)O)[C@H]2SC1", "note": "[Ceph C, cephalosporin C]", "values": [{"measurement": "Activity μmole 7ACA/min/g dry weight immobilised enzyme", "setting": "[1]", "result": "0.95 μmole 7ACA/min/g dry weight im"}, {"measurement": "Activity μmole/min/g wet weight immobilised enzyme", "setting": "[1]", "result": "0.24 μmole/min/g wet weight immobil"}, {"measurement": "maximum conversion", "setting": "[1]; cephalosporin C substrate, 22 hours, immobilised enzyme", "result": 1.7, "unit": "%"}, {"measurement": "7 ACA Produced", "setting": "[2]; extract 80 μl, Ceph C 50 mg/ml, 8 hr", "result": 14.5, "unit": "µg/mL"}, {"measurement": "Assay response (% rate of 7ACA)", "setting": "[3]; [9]", "result": 8.0, "unit": "%"}, {"measurement": "activity as an antibiotic", "setting": "[4]", "result": "some activity"}, {"measurement": "7 ACA Produced", "setting": "[5]", "result": 12, "unit": "µg/mL"}, {"measurement": "Specific activity maximum", "setting": "[6]; using Ceph C substrate", "result": 0.141, "unit": "μmol 7ACA/min/mg enzyme"}, {"measurement": "7 ACA Produced", "setting": "[7]; double the volume of B965 cells, cephalosporin C as substrate, overnight incubation", "result": 5, "unit": "µg/mL"}, {"measurement": "7 ACA Produced", "setting": "[8]; Ceph C 10 mg/ml, 4 hr", "result": 4.5, "unit": "µg/mL"}]}
{"compound": "CC(=O)OCC1=C(C(=O)O)N2C(=O)[C@@H](NC(=O)CCCC(=O)O)[C@H]2SC1", "note": "[GL-7ACA, 7-β-(4-carboxybutanamido)-cephalosporanic acid]", "values": [{"measurement": "Activity μmole 7ACA/min/g dry weight immobilised enzyme", "setting": "[1]", "result": "4.7 μmole 7ACA/min/g dry weight im"}, {"measurement": "Activity μmole/min/g wet weight immobilised enzyme", "setting": "[1]", "result": "1.2 μmole/min/g wet weight immobil"}, {"measurement": "conversion achieved", "setting": "[1]; GL-7ACA as substrate, immobilised enzyme", "result": 9.0, "unit": "%"}, {"measurement": "7 ACA Produced", "setting": "[2]; extract 10 μl, GL-7ACA 2 mg/ml, 4 hr", "result": 22, "unit": "µg/mL"}, {"measurement": "Assay response (% rate of 7ACA)", "setting": "[3]; 10 μl enzyme extract, 3 mg/ml substrate, 2 hour reaction at 27° C., extrapolated to equivalent conditions (reference = 100)", "result": 100, "unit": "%"}, {"measurement": "Km", "setting": "[6]; GL-7ACA substrate at 1.2-7.2 mM", "result": "2000 to 4000", "unit": "µM"}, {"measurement": "7 ACA Produced", "setting": "[7]; B965 cells filling a 10 μl inoculating loop, GL-7ACA as substrate, 18 hours incubation", "result": 320, "unit": "µg/mL"}, {"measurement": "7 ACA Produced", "setting": "[8]; GL-7ACA 3 mg/ml, 3 hr", "result": 102, "unit": "µg/mL"}]}
{"compound": "N.N.O=S(=O)(O)O", "note": "[ammonium sulphate]", "values": [{"measurement": "Inhibitors (inhibitory concentration)", "setting": "[6]", "result": "> 6", "unit": "% w/v"}]}
{"compound": "CC(=O)OCC1=C(C(=O)O)N2C(=O)[C@@H](NC(=O)CCCC(NC(=O)c3ccccc3)C(=O)O)[C@H]2SC1", "note": "(some centres unmarked) [benzoylcephalosporin C]", "values": [{"measurement": "Assay response (% rate of 7ACA)", "setting": "[3]; [9]", "result": 2.8, "unit": "%"}]}
{"compound": "O=C(CCCC(NC(=O)c1ccccc1)C(=O)O)N[C@@H]1C(=O)N2C(C(=O)[O-])=C(C[n+]3ccccc3)CS[C@H]12", "note": "(some centres unmarked) [benzoylcephalosporin-3-pyridiniummethyl]", "values": [{"measurement": "Assay response (% rate of 7ACA)", "setting": "[3]; [9]", "result": 3.5, "unit": "%"}]}
{"compound": "N[C@H](CCCC(=O)N[C@@H]1C(=O)N2C(C(=O)O)=C(CO)CS[C@H]12)C(=O)O", "note": "[deacetylcephalosporin C]", "values": [{"measurement": "Assay response (% rate of 7ACA)", "setting": "[3]; [9]", "result": 9.8, "unit": "%"}]}
{"compound": "CC(=O)OCC1=C(C(=O)O)N2C(=O)[C@@H](NC(=O)CCC(=O)O)[C@H]2SC1", "note": "[succinyl-7ACA]", "values": [{"measurement": "Assay response (% rate of 7ACA)", "setting": "[3]; [9]", "result": 0.8, "unit": "%"}]}
